Measurements from ChEMBL document CHEMBL1201862, “PubChem BioAssay data set” (2004).
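These data come from cells grown in 96-well plates and exposed to compound for 48 hours at five concentrations. At the GI50, growth is halved.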 Calls of active or inactive are those of the source. No stated cut-off is given here; in the data, active = GI50 up to about 1.1 µM and inactive = higher.

Assays:
Experiment in all cases: NCI anticancer screen, dose series, 48 h
[1] = test system: DLD-1
[2] = test system: DMS-114
[3] = test system: KM-20L2
[4] = test system: LXFL 529
[5] = test system: RXF 631

Measured: GI50

COC(=O)CCC(=O)CC(=O)C1=NS(=O)(=O)c2nc(S(N)(=O)=O)c(Cl)cc2N1
inactive: [1] > 100 µM | [2] > 100 µM | [3] 72.9 µM | [4] > 100 µM | [5] > 100 µM

CC(C)COC(=O)N1N=NC2C3CC(=O)C(O3)C21 (stereo not given)
inactive: [1] > 100 µM | [2] > 100 µM | [3] > 100 µM | [4] > 100 µM | [5] > 100 µM

CCC1N2CCCCC2[C@@H]2c3[nH]c4ccccc4c3CCN12 (stereo not given in full)
inactive: [1] > 100 µM | [2] > 100 µM | [3] > 100 µM | [4] > 100 µM | [5] > 100 µM
